Results taken from patent publication US3988461A, “Pharmaceutical composition for the treatment of Parkinson's disease” (priority 1974, dated 1976).
Counter-ions that a name gives are not always drawn.

Experiments:
[1] = tested on: Perphenazine-induced catalepsy; test: Antagonism of Perphenazine-induced Catalepsy; type: in vivo, white rats
Experimental: The synergistic increase in the antiparkinson effect was investigated by studying the inhibition of Oxotremorine-induced tremor and the antagonism of Perphenazine-induced catalepsy.
The tests were performed on white rats of both sexes, each weighing 150 to 200 g. The animals were treated orally with varying amounts of Cyproheptadine hydrochloride or L-Dopa, respectively, and 30 minutes after the introduction of the active agents the animals were treated with a standard dosage of Perphenazine [2-chloro-10-(3-/4-(2-hydroxy-ethyl)-1-piperazinyl/-propyl)-phenothiazine]. The percentage of catalepsy inhibition was examined as a function of the time.
The interaction of the active agents was studied on white rats, according to the method described above. Cyproheptadine hydrochloride was administered in oral dosages of 2 or 4 mg./kg., respectively. 30 minutes after the introduction of Cyproheptadine hydrochloride the animals were treated with varying amounts of L-Dopa, and after an additional period of 30 minutes the animals were treated with a standard dosage of Perphenazine.

motility = test: Examination of Locomotive Stimulating Effect on Motility Test
Experimental: b. Examination of Locomotive Stimulating Effect on Motility Test
The tests were performed on white mice. An intraperitoneal dosage of 500 mg./kg. of L-Dopa was administered 30 minutes after the pre-treatment with Cyproheptadine hydrochloride.

hexobarbital narcosis = test: Examination of Sedative Effects, Hexobarbital Narcosis Test; details: for Positive animals/treated animals: positive = sleep higher by at least 150% than control
Experimental: The side effects of the individual active agents as well as those of the compositions were examined as follows:
Examination of Sedative Effects on Mice, According to the Hexobarbital Narcosis Test
The compounds to be tested were suspended in water containing Tween 80, and 20 ml./kg. dosages of the obtained suspensions were administered orally to the test animals.

[2] = tested on: Oxotremorine-induced tremor; test: Inhibition of Oxotremorine-induced Tremor; type: in vivo, mice; details: for ED50 found: 30 min; for ED50 calculated: expected from isobole
Experimental: The tests were performed on mice of both sexes, each weighing 20 to 30 g. The groups consisted of 20 animals each. The test animals were treated orally with varying amounts of Cyproheptadine hydrochloride or L-Dopa, respectively.
30 minutes after the administration of L-Dopa, varying amounts of Cyproheptadine hydrochloride were introduced, and after further 30 minutes the animals were treated with a standard dosage of Oxotremorine.
In a further series of tests the animals were treated with 1 mg./kg. of Cyproheptadine hydrochloride. 30 minutes after the administration of Cyproheptadine hydrochloride, L-Dopa was introduced in varying amounts, and after a further period of 30 minutes the animals were treated with a standard dosage of Oxotremorine.
The expected ED50 values were determined by constructing an isobole, and the expected values were compared to the observed ones.

mice = test: Toxicity Tests (oral, individual and joint toxicity)
Experimental: (§1) The toxicities of the individual components were determined separately on mice. The active agents were suspended in water containing Tween 80, and the suspension was administered orally to the animals in a dosage of 20 ml./kg. The animals were kept under observation for 72 hours. The poisoned animals perished within 48 hours.
(§2) The joint toxicity of the individual active agents was determined as follows:
(§3) a. The animals were treated with 1 g/kg. of L-Dopa. 1 hour after the administration of L-Dopa, the animals were treated with varying amounts of Cyproheptadine hydrochloride.
(§4) b. The animals were treated with 2 g./kg. of L-Dopa, and varying amounts of Cyproheptadine hydrochloride were administered subsequently.
(§5) c. The animals were treated with 3 g./kg. of L-Dopa, and subsequently Cyproheptadine hydrochloride was administered in varying amounts.
(§6) In order to evaluate the changes in toxicity, the expected toxicities of the compositions listed below were determined by constructing an isobole, and the calculated data were compared to the observed ones.

[3] = as above; details: mouse, in vivo, po; for mortality at 72 h: Perishment, %
Experimental: as §1, §2, §3, §4, §5, §6

[4] = Cyproheptadine hydrochloride 10 mg./kg. oral
[5] = Cyproheptadine hydrochloride 20 mg./kg. oral
[6] = Table 5, Cyproheptadine HCl 2 mg./kg. alone
[7] = Table 5, Cyproheptadine HCl 4 mg./kg. alone
[8] = Cyproheptadine HCl 2.5 mg./kg. p.o. + physiological saline i.p.
[9] = Cyproheptadine hydrochloride after 200 mg./kg. L-Dopa
[10] = physiological saline p.o. + L-Dopa 500 mg./kg. i.p.
[11] = L-Dopa after 1 mg./kg. Cyproheptadine HCl

CN1CCC(=C2c3ccccc3C=Cc3ccccc32)CC1 [Cyproheptadine HCl]
Percentage inhibition after 0.5 hours [1, 4]: 89% | Percentage inhibition after 1 hours [1, 4]: 72% | Percentage inhibition after 2 hours [1, 4]: 61% | Percentage inhibition after 3 hours [1, 4]: 57% | Percentage inhibition after 0.5 hours [1, 5]: 76% | Percentage inhibition after 1 hours [1, 5]: 77% | Percentage inhibition after 2 hours [1, 5]: 73% | Percentage inhibition after 3 hours [1, 5]: 59% | Percentage inhibition after 0.5 hours [1, 6]: 37% | Percentage inhibition after 1 hours [1, 6]: 8% | Percentage inhibition after 2 hours [1, 6]: 14% | Percentage inhibition after 3 hours [1, 6]: 8% | Percentage inhibition after 0.5 hours [1, 7]: 20% | Percentage inhibition after 1 hours [1, 7]: 10% | Percentage inhibition after 2 hours [1, 7]: 14% | Percentage inhibition after 3 hours [1, 7]: 18% | Average No. of light interruptions (motility; [8]): 145 | Change % (motility; [8]): -36% | influence on locomotive stimulating effect of L-Dopa (in words) (motility; in the tested dosages, conclusion from Table 9): does not influence the locomotive stimulating effect of L-Dopa | % positive animals (hexobarbital narcosis; 2.5 mg./kg. oral): 33% | Positive animals/treated animals (hexobarbital narcosis; 2.5 mg./kg. oral): 6/18 | % positive animals (hexobarbital narcosis; 5.0 mg./kg. oral): 66% | Positive animals/treated animals (hexobarbital narcosis; 5.0 mg./kg. oral): 4/6 | % positive animals (hexobarbital narcosis; 10.0 mg./kg. oral): 83% | Positive animals/treated animals (hexobarbital narcosis; 10.0 mg./kg. oral): 5/6 | Inhibition, % ([2]; 0.2 mg./kg. after 200 mg./kg. L-Dopa pre-treatment): 0% | Inhibition, % ([2]; 0.4 mg./kg. after 200 mg./kg. L-Dopa pre-treatment): 20% | Inhibition, % ([2]; 0.8 mg./kg. after 200 mg./kg. L-Dopa pre-treatment): 50% | Inhibition, % ([2]; 1.6 mg./kg. after 200 mg./kg. L-Dopa pre-treatment): 90% | Difference (percentage deviation of ED50 calculated vs. found) [2, 9]: +107% | ED50 found [2, 9]: 0.7 mg/kg | ED50 ([2]; Mus musculus, 0.5 h, Cyproheptadine hydrochloride alone, oral, 30 min before Oxotremorine): 3 mg/kg | ED50 calculated [2, 9]: 1.45 mg/kg | Perished animals/treated animals (mice; 40 mg./kg., after 3 g./kg. L-Dopa): 1/20 | Perished animals/treated animals (mice; 60 mg./kg., after 2 g./kg. L-Dopa): 0/20 | Perished animals/treated animals (mice; 60 mg./kg., after 3 g./kg. L-Dopa): 5/20 | Perished animals/treated animals (mice; 90 mg./kg., 1 hour after 1 g/kg. L-Dopa): 2/20 | Perished animals/treated animals (mice; 90 mg./kg., after 2 g./kg. L-Dopa): 2/20 | Perished animals/treated animals (mice; 90 mg./kg., after 3 g./kg. L-Dopa): 9/20 | Perished animals/treated animals (mice; 200 mg./kg., 1 hour after 1 g/kg. L-Dopa): 14/20 | Perished animals/treated animals (mice; 200 mg./kg., after 2 g./kg. L-Dopa): 17/20 | Perished animals/treated animals (mice; 200 mg./kg., after 3 g./kg. L-Dopa): 15/20 | Perished animals/treated animals (mice; 300 mg./kg., 1 hour after 1 g/kg. L-Dopa): 19/20 | LD50 at 72 h [3]: 135 mg/kg | mortality at 72 h ([3]; 40 mg/kg, 40 mg./kg., after 3 g./kg. L-Dopa): 5% | mortality at 72 h ([3]; 60 mg/kg, 60 mg./kg., after 2 g./kg. L-Dopa): 0% | mortality at 72 h ([3]; 60 mg/kg, 60 mg./kg., after 3 g./kg. L-Dopa): 25% | mortality at 72 h ([3]; 90 mg/kg, 90 mg./kg., 1 hour after 1 g/kg. L-Dopa): 10% | mortality at 72 h ([3]; 90 mg/kg, 90 mg./kg., after 2 g./kg. L-Dopa): 10% | mortality at 72 h ([3]; 90 mg/kg, 90 mg./kg., after 3 g./kg. L-Dopa): 45% | mortality at 72 h ([3]; 200 mg/kg, 200 mg./kg., 1 hour after 1 g/kg. L-Dopa): 70% | mortality at 72 h ([3]; 200 mg/kg, 200 mg./kg., after 2 g./kg. L-Dopa): 85% | mortality at 72 h ([3]; 200 mg/kg, 200 mg./kg., after 3 g./kg. L-Dopa): 75% | mortality at 72 h ([3]; 300 mg/kg, 300 mg./kg., 1 hour after 1 g/kg. L-Dopa): 95%

N[C@@H](Cc1ccc(O)c(O)c1)C(=O)O [L-Dopa, L-3,4-dihydroxyphenylalanine]
Percentage inhibition after 0.5 hours ([1]; L-Dopa 100 mg./kg. oral): 2% | Percentage inhibition after 1 hours ([1]; L-Dopa 100 mg./kg. oral): 15% | Percentage inhibition after 2 hours ([1]; L-Dopa 100 mg./kg. oral): 18% | Percentage inhibition after 3 hours ([1]; L-Dopa 100 mg./kg. oral): 18% | Percentage inhibition after 4 hours ([1]; L-Dopa 100 mg./kg. oral): 10% | Percentage inhibition after 0.5 hours ([1]; L-Dopa 200 mg./kg. oral): 0% | Percentage inhibition after 1 hours ([1]; L-Dopa 200 mg./kg. oral): 23% | Percentage inhibition after 2 hours ([1]; L-Dopa 200 mg./kg. oral): 23% | Percentage inhibition after 3 hours ([1]; L-Dopa 200 mg./kg. oral): 3% | Percentage inhibition after 4 hours ([1]; L-Dopa 200 mg./kg. oral): 5% | Percentage inhibition after 0.5 hours ([1]; L-Dopa 400 mg./kg. oral): 27% | Percentage inhibition after 1 hours ([1]; L-Dopa 400 mg./kg. oral): 33% | Percentage inhibition after 2 hours ([1]; L-Dopa 400 mg./kg. oral): 32% | Percentage inhibition after 3 hours ([1]; L-Dopa 400 mg./kg. oral): 20% | Percentage inhibition after 4 hours ([1]; L-Dopa 400 mg./kg. oral): 10% | Average No. of light interruptions (motility; [10]): 465 | Change % (motility; [10]): +105% | % positive animals (hexobarbital narcosis; 520 mg./kg. oral): 0% | % positive animals (hexobarbital narcosis; 800 mg./kg. oral): 16.6% | % positive animals (hexobarbital narcosis; 1200 mg./kg. oral): 83% | Inhibition, % ([2]; L-Dopa 50 mg./kg. after 1 mg./kg. Cyproheptadine hydrochloride): 15% | Inhibition, % ([2]; L-Dopa 100 mg./kg. after 1 mg./kg. Cyproheptadine hydrochloride): 52.5% | Inhibition, % ([2]; L-Dopa 200 mg./kg. after 1 mg./kg. Cyproheptadine hydrochloride): 67.5% | Inhibition, % ([2]; L-Dopa 400 mg./kg. after 1 mg./kg. Cyproheptadine hydrochloride): 85% | Difference (percentage deviation of ED50 calculated vs. found) [2, 11]: +117% | ED50 found [2, 11]: 120 mg/kg | ED50 calculated [2, 11]: 260 mg/kg | influence on toxicity of the other agent (in words) (mice; pre-treatments with 1 and 2 g./kg. of L-dopa): hardly influence the toxicity of Cyproheptadine hydrochloride | LD50 at 72 h [3]: 4200 mg/kg
